These results are taken from patent US11718605B2, “Heterocyclic compounds as immunomodulators” (Incyte Corporation, priority 2016, dated 2023).

Molecules are shown by their SMILES.

The target of the assay is PD-1/PD-L1 protein/protein interaction (Homo sapiens (Human), UniProt Q9NZQ7). Description: PD-1/PD-L1 Homogeneous Time-Resolved Fluorescence (HTRF) Binding Assay. The conditions noted are these: recombinant human PD-L1 (19-238) His-tag 10 nM, human PD-1 (25-167) Fc tag 3 nM; 25° C., PBS pH 7.4. As for the experimental part: Example A. PD-1/PD-L1 Homogeneous Time-Resolved Fluorescence (HTRF) Binding Assay
Sequence of PD-1/PD-L1 protein/protein interaction (Q9NZQ7 19-238): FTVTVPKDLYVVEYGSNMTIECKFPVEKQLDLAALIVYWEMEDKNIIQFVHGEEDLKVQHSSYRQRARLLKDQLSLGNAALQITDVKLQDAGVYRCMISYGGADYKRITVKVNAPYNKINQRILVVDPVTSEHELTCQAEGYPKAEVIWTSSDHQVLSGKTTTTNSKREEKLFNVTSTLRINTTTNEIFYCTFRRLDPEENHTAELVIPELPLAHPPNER
The assays were conducted in a standard black 384-well polystyrene plate with a final volume of 20 μL. Inhibitors were first serially diluted in DMSO and then added to the plate wells before the addition of other reaction components. The final concentration of DMSO in the assay was 1%. The assays were carried out at 25° C. in the PBS buffer (pH 7.4) with 0.05% Tween-20 and 0.1% BSA. Recombinant human PD-L1 protein (19-238) with a His-tag at the C-terminus was purchased from AcroBiosystems (PD1-H5229). Recombinant human PD-1 protein (25-167) with Fc tag at the C-terminus was also purchased from AcroBiosystems (PD1-H5257). PD-L1 and PD-1 proteins were diluted in the assay buffer and 10 μL was added to the plate well. Plates were centrifuged and proteins were preincubated with inhibitors for 40 minutes. The incubation was followed by the addition of 10 μL of HTRF detection buffer supplemented with Europium cryptate-labeled anti-human IgG (PerkinElmer-AD0212) specific for Fc and anti-His antibody conjugated to SureLight®-Allophycocyanin (APC, PerkinElmer-AD0059H). After centrifugation, the plate was incubated at 25° C. for 60 min. before reading on a PHERAstar FS plate reader (665 nm/620 nm ratio). Final concentrations in the assay were—3 nM PD1, 10 nM PD-L1, 1 nM europium anti-human IgG and 20 nM anti-His-Allophycocyanin. IC50 determination was performed by fitting the curve of percent control activity versus the log of the inhibitor concentration using the GraphPad Prism 5.0 software.
Take `CCn1cc(CNCCO)cc(C(=O)Nc2cccc(-c3ccccc3)c2C)c1=O` [Example 10, 1-ethyl-5-{[(2-hydroxyethyl)amino]methyl}-N-(2-methylbiphenyl-3-yl)-2-oxo-1,2-dihydropyridine-3-carboxamide]: the half-inhibitory concentration (IC50) fell in the range of 100 to 500 nM.
The result for `CCn1cc(CN2CCCC[C@H]2C(=O)O)cc(C(=O)Nc2cccc(-c3ccccc3)c2C)c1=O` [Example 9, (2S)-1-[(1-ethyl-5-{[(2-methylbiphenyl-3-yl)amino]carbonyl}-6-oxo-1,6-dihydropyridin-3-yl)methyl]piperidine-2-carboxylic acid] reads 500 to 10000 nM; that for `Cn1cc(CNCCO)cc(C(=O)Nc2cccc(-c3cccc4c3cnn4C)c2C#N)c1=O` [Example 8, N-(2-cyano-3-(1-methyl-1H-indazol-4-yl)phenyl)-5-((2-hydroxyethylamino)methyl)-1-methyl-2-oxo-1,2-dihydropyridine-3-carboxamide], no more than 100 nM.
The result for `COc1cccc(-c2cccc(NC(=O)c3cc(CNCCO)cn(C)c3=O)c2C#N)c1` [Example 5, N-(2-cyano-3′-methoxybiphenyl-3-yl)-5-{[(2-hydroxyethyl)amino]methyl}-1-methyl-2-oxo-1,2-dihydropyridine-3-carboxamide] reads no more than 100 nM; that for `Cn1cc(CNCCO)cc(C(=O)Nc2cccc(-c3ccccc3F)c2C#N)c1=O` [Example 6, N-(2-cyano-2′-fluorobiphenyl-3-yl)-5-{[(2-hydroxyethyl)amino]methyl}-1-methyl-2-oxo-1,2-dihydropyridine-3-carboxamide], no more than 100 nM; that for `Cc1c(NC(=O)c2cc(CNCCO)cn(C)c2=O)cccc1-c1ccc2c(c1)OCCO2` [Example 13, N-[3-(2,3-dihydro-1,4-benzodioxin-6-yl)-2-methylphenyl]-5-{[(2-hydroxyethyl)amino]methyl}-1-methyl-2-oxo-1,2-dihydropyridine-3-carboxamide], no more than 100 nM.
For the compound `Cn1cc(CNCCO)cc(C(=O)Nc2cccc(C3CCCCC3)c2C#N)c1=O` [Example 3, N-(2-cyano-3-cyclohexylphenyl)-5-{[(2-hydroxyethyl)amino]methyl}-1-methyl-2-oxo-1,2-dihydropyridine-3-carboxamide], the IC50 was 100 to 500 nM.
Under `Cn1cc(CNCCO)cc(C(=O)Nc2cccc(-c3ccc4c(c3)OCCO4)c2C#N)c1=O` [Example 4, N-[2-cyano-3-(2,3-dihydro-1,4-benzodioxin-6-yl)phenyl]-5-{[(2-hydroxyethyl)amino]methyl}-1-methyl-2-oxo-1,2-dihydropyridine-3-carboxamide] stands no more than 100 nM; under `Cc1c(NC(=O)c2cc(CNCCO)cn(C)c2=O)cccc1-c1ccccc1` [Example 2, 5-{[(2-hydroxyethyl)amino]methyl}-1-methyl-N-(2-methylbiphenyl-3-yl)-2-oxo-1,2-dihydropyridine-3-carboxamide], no more than 100 nM.
Under `COc1cccc(-c2cccc(NC(=O)c3cc(CNCCO)cn(C)c3=O)c2C)c1F` [Example 12, N-(2′-fluoro-3′-methoxy-2-methylbiphenyl-3-yl)-5-((2-hydroxyethylamino)methyl)-1-methyl-2-oxo-1,2-dihydropyridine-3-carboxamide] stands no more than 100 nM; under `Cn1cc(CNCCO)cc(C(=O)Nc2cccc(-c3ccccc3)c2C#N)c1=O` [Example 7, N-(2-cyanobiphenyl-3-yl)-5-{[(2-hydroxyethyl)amino]methyl}-1-methyl-2-oxo-1,2-dihydropyridine-3-carboxamide], 100 to 500 nM; under `Cc1c(NC(=O)c2cc(CN3CCCC[C@H]3C(=O)O)cn(C)c2=O)cccc1-c1ccccc1` [Example 1, (2S)-1-[(1-methyl-5-{[(2-methylbiphenyl-3-yl)amino]carbonyl}-6-oxo-1,6-dihydropyridin-3-yl)methyl]piperidine-2-carboxylic acid], no more than 100 nM.
The result for `Cc1c(NC(=O)c2cc(CNCCO)cn(C)c2=O)cccc1-c1cccc2c1cnn2C` [Example 11, 5-{[(2-hydroxyethyl)amino]methyl}-1-methyl-N-[2-methyl-3-(1-methyl-1H-indazol-4-yl)phenyl]-2-oxo-1,2-dihydropyridine-3-carboxamide] reads no more than 100 nM.
